Columns and labels:
Chlamydia = assay: Phase 2 study in men with non-gonococcal urethritis, eradication of Chlamydia; assay type: in vivo, human
Description: The use of rifalazil in the treatment of PAOD is supported by both preclinical and clinical lines of evidence.
Due to the recalcitrant response of C. pneumoniae to antibiotic therapy, the duration of therapy is thought to be an important parameter for optimizing treatment. Previous large well-controlled randomized studies have tested long term antibiotic therapy in the CHD population. A longer term treatment schedule with rifalazil than was utilized in eradicating C. trachomatis in NGU (single dose) may represent a preferred therapeutic regimen for producing a clinically beneficial effect on C. pneumoniae in patients with PAOD. Further, dosing of PAOD patients with rifalazil for a duration of 8 weeks may further optimize therapeutic effect against C. pneumoniae in these patients. Chlamydia pneumoniae infects the vasculature, and to elicit significant antibacterial activity against this pathogen, longer courses of treatment than those directed at C. trachomatis (i.e., single dose) are preferred. Pharmacokinetic and pharmacodynamic modeling predict that this dosage will provide continuous plasma and tissue concentrations of rifalazil above the MIC90 for C. pneumoniae for over 9 weeks. A single dose of 25 mg rifalazil administered once per week for up to 4 weeks was not associated with significant adverse effects in Phase 1 studies. […]

[1] = Phase 1 Study ABI-1648-006, single oral dose pharmacokinetics; conditions: for half-life / Tmax / CL/F / AUC(0-inf) / Cmax: human, plasma; for AUC0−∞/Dose Mean / Cmax/Dose Mean: normalized to mg/kg
Description: (§1) Study ABI-1648-006 was conducted to evaluate the PK of single and multiple oral doses of 2.5, 5, 12.5, and 25 mg administered to healthy male and female volunteers.

[2] = Phase 1 Study ABI-1648-006, multiple oral dose pharmacokinetics; conditions: for Tmax / AUC / Cmax / half-life: human, plasma; for AUC0-Tau/Dose Mean / Cmax/Dose Mean: normalized to 1 mg/kg
Description: as §1

[3] = females, single oral dose 2.5 mg
[4] = females, single oral dose 12.5 mg
[5] = females, single oral dose 25 mg
[6] = males, single oral dose 12.5 mg

## CO[C@H]1/C=C/O[C@@]2(C)Oc3c(C)c(O)c4c(=O)c(c5oc6cc(N7CCN(CC(C)C)CC7)cc(O)c6nc-5c4c3C2=O)NC(=O)/C(C)=C\C=C\[C@H](C)[C@H](O)[C@@H](C)[C@@H](O)[C@@H](C)[C@H](OC(C)=O)[C@@H]1C [rifalazil, 3′-hydroxy-5′-(4-isobutyl-1-piperazinyl) benzoxazinorifamycin]
Chlamydia; oral 25 mg
  anti-chlamydial activity in patients with NGU: significant anti-chlamydial activity
Chlamydia; single oral dose
  patients in whom Chlamydia was eradicated: > 86%
[1]; after single dose administration (study conclusions)
  Time to maximum concentration: 4 to 6 h
[1]; both, oral, elimination t1/2, study conclusions
  half-life: 4.17 to 6.25 days
[1]; both, po
  Tmax: 4.8 to 6.2 h
[1]; both, po, mean distribution t1/2, range across groups, single oral doses 2.5-25 mg, males and females
  half-life: 0.188 to 0.358 days
[1]; both, po, mean elimination t1/2, range across groups, single oral doses 2.5-25 mg, males and females
  half-life: 4.21 to 6.25 days
[1]; female, po, 2.5 mg
  CL/F: 4.17 mL/min/kg
  Tmax: 4.8 h
[1]; female, po, 2.5 mg, AUC0−∞ GMean (geometric mean), females, single oral dose 2.5 mg
  AUC(0-inf): 168 ng·h/mL
[1]; female, po, 2.5 mg, AUC0−∞ Mean, females, single oral dose 2.5 mg
  AUC(0-inf): 174 ng·h/mL
[1]; female, po, 2.5 mg, Cmax GMean (geometric mean), females, single oral dose 2.5 mg
  Cmax: 7.1 ng/mL
[1]; female, po, 2.5 mg, Cmax Mean, females, single oral dose 2.5 mg
  Cmax: 7.5 ng/mL
[1]; female, po, 2.5 mg, Distribution t1/2 Mean, females, single oral dose 2.5 mg
  half-life: 0.208 days
[1]; female, po, 2.5 mg, Elimination t1/2 Mean, females, single oral dose 2.5 mg
  half-life: 5.55 days
[1]; female, po, 5 mg
  CL/F: 3.83 mL/min/kg
  Tmax: 5 h
[1]; female, po, 5 mg, AUC0−∞ GMean (geometric mean), females, single oral dose 5 mg
  AUC(0-inf): 373 ng·h/mL
[1]; female, po, 5 mg, AUC0−∞ Mean, females, single oral dose 5 mg
  AUC(0-inf): 397 ng·h/mL
[1]; female, po, 5 mg, Cmax GMean (geometric mean), females, single oral dose 5 mg
  Cmax: 13.5 ng/mL
[1]; female, po, 5 mg, Cmax Mean, females, single oral dose 5 mg
  Cmax: 14.6 ng/mL
[1]; female, po, 5 mg, Distribution t1/2 Mean, females, single oral dose 5 mg
  half-life: 0.188 days
[1]; female, po, 5 mg, Elimination t1/2 Mean, females, single oral dose 5 mg
  half-life: 5.7 days
[1]; female, po, 12.5 mg
  CL/F: 6.5 mL/min/kg
  Tmax: 6.2 h
[1]; female, po, 12.5 mg, AUC0−∞ GMean (geometric mean), females, single oral dose 12.5 mg
  AUC(0-inf): 526 ng·h/mL
[1]; female, po, 12.5 mg, AUC0−∞ Mean, females, single oral dose 12.5 mg
  AUC(0-inf): 540 ng·h/mL
[1]; female, po, 12.5 mg, Cmax GMean (geometric mean), females, single oral dose 12.5 mg
  Cmax: 19.9 ng/mL
[1]; female, po, 12.5 mg, Cmax Mean, females, single oral dose 12.5 mg
  Cmax: 20.8 ng/mL
[1]; female, po, 12.5 mg, Distribution t1/2 Mean, females, single oral dose 12.5 mg
  half-life: 0.254 days
[1]; female, po, 12.5 mg, Elimination t1/2 Mean, females, single oral dose 12.5 mg
  half-life: 4.6 days
[1]; female, po, 25 mg
  CL/F: 7.17 mL/min/kg
  Tmax: 4.8 h
[1]; female, po, 25 mg, AUC0−∞ GMean (geometric mean), females, single oral dose 25 mg
  AUC(0-inf): 1020 ng·h/mL
[1]; female, po, 25 mg, AUC0−∞ Mean, females, single oral dose 25 mg
  AUC(0-inf): 1100 ng·h/mL
[1]; female, po, 25 mg, Cmax GMean (geometric mean), females, single oral dose 25 mg
  Cmax: 33.3 ng/mL
[1]; female, po, 25 mg, Cmax Mean, females, single oral dose 25 mg
  Cmax: 36.5 ng/mL
[1]; female, po, 25 mg, Distribution t1/2 Mean, females, single oral dose 25 mg
  half-life: 0.325 days
[1]; female, po, 25 mg, Elimination t1/2 Mean, females, single oral dose 25 mg
  half-life: 6.27 days
[1]; [3]
  Vdβ/F Mean: 45.0 L/kg
  AUC0−∞/Dose Mean: 4274.6
  Cmax/Dose Mean: 183.1
[1]; females, single oral dose 5 mg
  Vdβ/F Mean: 41.6 L/kg
  AUC0−∞/Dose Mean: 5124.5
  Cmax/Dose Mean: 185.1
[1]; [4]
  Vdβ/F Mean: 61.6 L/kg
  AUC0−∞/Dose Mean: 2759.4
  Cmax/Dose Mean: 106.9
[1]; [5]
  Vdβ/F Mean: 82.8 L/kg
  AUC0−∞/Dose Mean: 2796.3
  Cmax/Dose Mean: 91.3
[1]; male, po, 2.5 mg
  CL/F: 3.5 mL/min/kg
  Tmax: 5.3 h
[1]; male, po, 2.5 mg, AUC0−∞ GMean (geometric mean), males, single oral dose 2.5 mg
  AUC(0-inf): 172 ng·h/mL
[1]; male, po, 2.5 mg, AUC0−∞ Mean, males, single oral dose 2.5 mg
  AUC(0-inf): 188 ng·h/mL
[1]; male, po, 2.5 mg, Cmax GMean (geometric mean), males, single oral dose 2.5 mg
  Cmax: 7.8 ng/mL
[1]; male, po, 2.5 mg, Cmax Mean, males, single oral dose 2.5 mg
  Cmax: 8.4 ng/mL
[1]; male, po, 2.5 mg, Distribution t1/2 Mean, males, single oral dose 2.5 mg
  half-life: 0.221 days
[1]; male, po, 2.5 mg, Elimination t1/2 Mean, males, single oral dose 2.5 mg
  half-life: 4.21 days
[1]; male, po, 12.5 mg
  CL/F: 5.5 mL/min/kg
  Tmax: 5 h
[1]; male, po, 12.5 mg, AUC0−∞ GMean (geometric mean), males, single oral dose 12.5 mg
  AUC(0-inf): 528 ng·h/mL
[1]; male, po, 12.5 mg, AUC0−∞ Mean, males, single oral dose 12.5 mg
  AUC(0-inf): 552 ng·h/mL
[1]; male, po, 12.5 mg, Cmax GMean (geometric mean), males, single oral dose 12.5 mg
  Cmax: 19.2 ng/mL
[1]; male, po, 12.5 mg, Cmax Mean, males, single oral dose 12.5 mg
  Cmax: 19.7 ng/mL
[1]; male, po, 12.5 mg, Distribution t1/2 Mean, males, single oral dose 12.5 mg
  half-life: 0.321 days
[1]; male, po, 12.5 mg, Elimination t1/2 Mean, males, single oral dose 12.5 mg
  half-life: 5.57 days
[1]; male, po, 25 mg
  CL/F: 8 mL/min/kg
  Tmax: 5 h
[1]; male, po, 25 mg, AUC0−∞ GMean (geometric mean), males, single oral dose 25 mg
  AUC(0-inf): 656 ng·h/mL
[1]; male, po, 25 mg, AUC0−∞ Mean, males, single oral dose 25 mg
  AUC(0-inf): 683 ng·h/mL
[1]; male, po, 25 mg, Cmax GMean (geometric mean), males, single oral dose 25 mg
  Cmax: 23.9 ng/mL
[1]; male, po, 25 mg, Cmax Mean, males, single oral dose 25 mg
  Cmax: 24.7 ng/mL
[1]; male, po, 25 mg, Distribution t1/2 Mean, males, single oral dose 25 mg
  half-life: 0.362 days
[1]; male, po, 25 mg, Elimination t1/2 Mean, males, single oral dose 25 mg
  half-life: 4.85 days
[1]; males, single oral dose 2.5 mg
  Vdβ/F Mean: 25.4 L/kg
  AUC0−∞/Dose Mean: 6084.0
  Cmax/Dose Mean: 269.6
[1]; [6]
  Vdβ/F Mean: 62.3 L/kg
  AUC0−∞/Dose Mean: 3299.8
  Cmax/Dose Mean: 117.4
[1]; males, single oral dose 25 mg
  Vdβ/F Mean: 74.2 L/kg
  AUC0−∞/Dose Mean: 2273.8
  Cmax/Dose Mean: 82.0
[2]; both, po
  Tmax: 4 to 6.3 h
[2]; female, oral, 2.5 mg
  AUC: 98.2 ng·h/mL
  Cmax: 7 ng/mL
  Tmax: 4.3 h
  half-life: 5.84 days
[2]; female, oral, 5 mg
  AUC: 197 ng·h/mL
  Cmax: 14.3 ng/mL
  Tmax: 5.3 h
  half-life: 7.23 days
[2]; female, oral, 12.5 mg
  AUC: 339 ng·h/mL
  Cmax: 19.1 ng/mL
  Tmax: 6.3 h
  half-life: 3.6 days
[2]; female, po
  half-life: 3.58 to 5.83 days
[2]; females, 2.5 mg QD × 5 days
  AUC0-Tau/Dose Mean: 2540.1
  Cmax/Dose Mean: 184.1
[2]; females, 5 mg QD × 5 days
  AUC0-Tau/Dose Mean: 2539.0
  Cmax/Dose Mean: 183.6
[2]; females, 12.5 mg × 2 doses
  AUC0-Tau/Dose Mean: 1614.0
  Cmax/Dose Mean: 90.6
[2]; male, oral, 2.5 mg
  AUC: 178 ng·h/mL
  Cmax: 8.5 ng/mL
  Tmax: 4.3 h
  half-life: 5.6 days
[2]; male, oral, 5 mg
  AUC: 261 ng·h/mL
  Cmax: 17.3 ng/mL
  Tmax: 4 h
  half-life: 4.94 days
[2]; male, oral, 12.5 mg
  AUC: 398 ng·h/mL
  Cmax: 20.9 ng/mL
  Tmax: 6.2 h
  half-life: 5.01 days
[2]; male, po
  half-life: 4.92 to 5.58 days
[2]; males, 2.5 mg QD × 5 days
  AUC0-Tau/Dose Mean: 5788.5
  Cmax/Dose Mean: 279.2
[2]; males, 5 mg QD × 5 days
  AUC0-Tau/Dose Mean: 4152.6
  Cmax/Dose Mean: 273.7
[2]; males, 12.5 mg × 2 doses
  AUC0-Tau/Dose Mean: 2357.9
  Cmax/Dose Mean: 124.2
